Patent US8354412B2, “Beta-3 receptor ligands and their use in therapy” (Universita' Degli Studi di Bari, priority 2006, dated 2013)
Like-named read-outs stand apart in the source and are kept apart here.

What was measured:
[1] = target: T1, cloned human β1-adrenergic receptor (Homo sapiens, UniProt P08588); experiment: [3H]-dihydroalprenolol binding on CHO cell membranes, β1-adrenergic receptor
T1 construct: expressed in transfected cells; host or cells: CHO (membranes)
Experimental: (§1) The cell lines of “Chinese hamster ovary” (CHO) that individually express the three subtypes of the human adrenergic receptor (β1, β2 or β3 were grown at 37° C. in an atmosphere composed of 5% of CO2 and 95% of air in a culture medium of Dulbecco's Modified Eagle Medium with a nutrient mixture of F12 (DMEM/F12) supplemented with 10% of bovine fetal Serum, 2 mM of L-glutamine, 100 units/ml of penicillin G and 100 μg/ml of […].
(§2) The preconfluence cells were washed with cold PBS, removed from the surface of the plate, collected in cold lysis buffer (10×10^6/ml; 5 mM Tris/HCl, 2 mM EDTA, pH 7.4 at 4° C.) and homogenized with a Brinkmann Polytron (5 for 3×10 secs). The cell membranes obtained were then […] for 10 mins at 4° C. at 1000 g. The supernatant was centrifuged at 10000 g for 30 min. at 4° C. The resultant membrane pellet was resuspended in cold incubation buffer (50 mM Tris/HCl, 10 mM MgCl2, pH 7.4 for the binding experiments on the β1-adrenergic receptors; 50 mM Tris/HCl, pH 7.4 for the binding experiments of on the β2-adrenergic receptors) and its protein content was then determined. The membrane suspension obtained was used immediately or stored at −80° C. until used in the binding experiments.
(§3) The saturation experiments were conducted by incubating the cell membranes (50 μg of protein) in 500 μl of incubation buffer, containing increasing concentrations of [^3H]-dihydroalprenolol (0.1 nM, 0.5 nM, 1 nM, 3 nM, 5 nM, 10 nM). The β1-adrenergic receptors were incubated at 30° C. for 30 min. while the incubation lasted 90 min. in the case of the β2-adrenergic receptor. […] The filters were then washed (3×1 ml) with cold incubation buffer. The residual radioactivity of the filters was measured using a Beckmann LS6500 Multi-purpose scintillator.
(§4) The competitive experiments were conducted by incubation of 50 μg of protein with increasing quantities of the compound under examination (from 10^−9M to 10^−4M) and 4 nM [^3H]-dihydroalprenolol for the β1-adrenergic receptor or 0.4 nM for the β2-adrenergic receptor, in a total volume of 500 μl of incubation buffer.

[2] = target: T2, cloned human β2-adrenergic receptor (Homo sapiens, UniProt P07550); experiment: [3H]-dihydroalprenolol binding on CHO cell membranes, β2-adrenergic receptor
T2 construct: expressed in transfected cells; host or cells: CHO (membranes)
Experimental: as §1, §2, §3, §4

[3] = target: T3, cloned human beta-3 adrenergic receptor (Homo sapiens, UniProt P13945); experiment: cAMP accumulation (DELFIA cAMP-Eu assay) in CHO-K1 cells expressing the beta-3 adrenergic receptor; type: cell-based; conditions: for Emax: CHO-K1, read-out: Intrinsic Activity (IA %); for EC50: concentration of ligand producing 50% of maximum cAMP accumulation, CHO-K1 human β3, SEM, n ≧ 3; for type of activity on the beta-3 adrenergic receptor (in words): statement in the description
T3 construct: expressed in transfected cells; host or cells: CHO-K1
Experimental: The determination of the beta-3 adrenergic activity of the compounds of general formula (I) was performed by measuring the levels of cAMP in cell lines of CHO-K1 that express the cloned human beta-3 adrenergic receptor. The accumulation of cAMP is directly correlated to the beta-3 adrenergic activity of the compound and is a predictive measure of the effectiveness of the ligand. The accumulation of cAMP produced by the compounds 1a-1h was determined using the Dissociation Enhanced Lanthanide Fluorescence Immunoassay (DELFIA®, Gabriel, D.; Vernier, M.; Pfeifer, M. J.; Dasen, B.; Tenaillon, L.; Bouhelal, R. Assay and Drug Development Technologies 2003, 1, 291-303), endowed with greater sensitivity and greater accuracy than [α-^32P] radioisotope methods (Hoffmann, C.; Leitz, M. R.; Obendorf-Maass, S.; Lohse, M. J.; Klotz, K.-N. Naunyn-Schmiedeberg's Arch. Pharmacol. 2004, 369, 151-159) or [^3H] (Nannies, K. M.; Briend-Sutren, M. M.; Emorine, L. J.; Delavier-Klutchko, C.; Marullo, S.; Strosberg, A. D. Eur. J. Biochem. 1991, 196, 357-361) of determining the levels of cAMP in cell lines.
as §1
The DELFIA test (Dissociation Enhanced Lanthanide […] Immuno Assay) used for measuring the levels of cAMP was performed according to the protocol supplied by PerkinElmer Life Science. The optimization of the experimental conditions (quantity of cells, times of incubation) is reported below.
A plate of confluence cells was trypsinized and the cells were resuspended in the aforementioned culture medium, sown at a concentration of 50000 cells/200 μl per well in a 96-well plate and cultivated overnight in a CO2 incubator. The culture medium was then aspirated from every well and substituted with 100 μl of culture substrate without serum, preheated at 37° C. The plate was then put back into a CO2 incubator for 30 mins at 37° C. 50 μl of IBMX (3-isobutyl-1-methylxanthine) 1 mM, an inhibitor of the phosphodiesterase was then added to all the wells. In some wells 50 μl of forskolin (compound used for the validation of the DELFIA) was added at different concentrations (100 nM, 500 nM, 1 μM, 10 μM, 50 μM) and in the other wells 50 μl of the compounds to be tested at the same concentrations as the forskolin; the plate was then again incubated for 30 min at 37° C. The cells, at this point, were lysed and incubated at room temperature for 5 min. The plate was used immediately for measuring the levels of cAMP or stored at 4° C. until the measurement was carried out. The fluorescence was determined using a multilabel time-resolved fluorimetry technique performed on a PerkinElmer 1420 Victor®. The excitation and emission wavelengths were 340 nm and 615 nm respectively.

[4] = target: T1, cloned human β1-adrenergic receptor; experiment: [3H]-dihydroalprenolol binding on CHO cell membranes, β1-adrenergic receptor; conditions: compound at 10 μM
[5] = target: T2, cloned human β2-adrenergic receptor; experiment: [3H]-dihydroalprenolol binding on CHO cell membranes, β2-adrenergic receptor; conditions: compound at 10 μM
[6] = human β1, Cheng-Prusoff, 4 nM [3H]-dihydroalprenolol, read-out: Binding Ki, β1
[7] = human β2, Cheng-Prusoff, 0.4 nM [3H]-dihydroalprenolol, read-out: Binding Ki, β2
[8] = maximum cAMP response, isoproterenol 10^−4 M = 100%, absence of agonists = 0%

T3 sequence (P13945 whole entry): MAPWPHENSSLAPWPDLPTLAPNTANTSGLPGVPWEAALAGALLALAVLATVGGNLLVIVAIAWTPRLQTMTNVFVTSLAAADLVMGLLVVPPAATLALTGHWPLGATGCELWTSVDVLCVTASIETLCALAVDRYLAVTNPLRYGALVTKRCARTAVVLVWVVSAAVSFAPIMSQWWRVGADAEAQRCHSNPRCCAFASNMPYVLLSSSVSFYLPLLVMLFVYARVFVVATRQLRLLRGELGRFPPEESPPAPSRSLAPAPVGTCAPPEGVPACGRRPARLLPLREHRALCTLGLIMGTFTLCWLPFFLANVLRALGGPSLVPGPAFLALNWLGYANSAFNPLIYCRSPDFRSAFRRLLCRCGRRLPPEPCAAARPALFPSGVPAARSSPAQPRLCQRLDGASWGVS
T2 sequence (P07550 whole entry): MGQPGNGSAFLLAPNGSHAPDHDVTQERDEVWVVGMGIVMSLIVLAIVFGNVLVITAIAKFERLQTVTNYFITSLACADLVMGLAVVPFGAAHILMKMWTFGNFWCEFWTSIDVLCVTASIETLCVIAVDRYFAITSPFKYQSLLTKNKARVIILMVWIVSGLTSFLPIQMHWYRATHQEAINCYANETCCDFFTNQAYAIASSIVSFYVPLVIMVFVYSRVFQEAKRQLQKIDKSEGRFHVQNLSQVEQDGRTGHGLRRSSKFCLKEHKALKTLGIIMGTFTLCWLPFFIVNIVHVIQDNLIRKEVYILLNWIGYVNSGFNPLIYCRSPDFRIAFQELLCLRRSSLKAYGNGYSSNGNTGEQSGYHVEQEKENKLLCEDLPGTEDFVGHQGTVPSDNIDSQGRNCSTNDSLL
T1 sequence (P08588 whole entry): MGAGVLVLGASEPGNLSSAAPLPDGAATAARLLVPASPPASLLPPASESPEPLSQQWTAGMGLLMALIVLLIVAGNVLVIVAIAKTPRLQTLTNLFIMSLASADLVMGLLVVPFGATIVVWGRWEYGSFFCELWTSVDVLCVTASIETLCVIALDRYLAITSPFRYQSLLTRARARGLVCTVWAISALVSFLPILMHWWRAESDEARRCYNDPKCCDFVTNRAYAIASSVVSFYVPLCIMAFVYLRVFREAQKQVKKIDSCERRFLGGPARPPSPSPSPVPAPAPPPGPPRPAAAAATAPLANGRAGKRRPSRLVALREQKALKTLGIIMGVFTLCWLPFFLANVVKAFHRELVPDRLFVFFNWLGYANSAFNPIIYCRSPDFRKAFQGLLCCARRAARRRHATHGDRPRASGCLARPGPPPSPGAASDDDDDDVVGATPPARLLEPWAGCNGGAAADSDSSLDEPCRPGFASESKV

Row | Compound | Ki [1, 6] [µM] | Ki [2, 7] [µM] | Emax [3, 8] [%] | EC50 [3] [nM] | type of activity on the beta-3 adrenergic receptor (in words) [3] | Ki [1] [µM] | Ki [2] [µM] | % activation at 10 μM, β1 [4] [%] | % activation at 10 μM, β2 [5] [%] | Intrinsic Activity (IA %) [3, 8]
1 | CC(Oc1ccc(CCNCC(O)c2ccccc2)cc1)C(=O)O (racemic) [Compound 1d, (±)-2-{4-[2-(2-phenyl-2-hydroxyethylamino)ethyl]phenoxy}propionic acid] | > 7 | > 5 | 65 | 3.8 ± 0.7 | – | – | – | – | – | –
2 | C[C@H](NCCc1ccc(O[C@H](C)C(=O)O)cc1)[C@@H](O)c1ccccc1 [Compound 1k, (R)-2-[4-[2-((1S,2S)-1-hydroxy-1-phenylpropan-2-yl-amino)ethyl]phenoxy]propionic acid] | – | – | 53 | 1.97 ± 0.9 | – | > 7 | > 5 | – | – | –
3 | C[C@@H](Oc1ccc(CCNC[C@H](O)c2ccccc2)cc1)C(=O)O [Compound 1h, (2R)-(−)-2-{4-[2-((2R)-2-phenyl-2-hydroxyethylamino)ethyl]phenoxy}propionic acid] | > 7 | > 5 | 35 | 107 ± 37 | – | – | – | – | – | –
4 | C[C@H](Oc1ccc(CCNC[C@H](O)c2ccccc2)cc1)C(=O)O [Compound 1f, (2S)-(−)-2-{4-[2-((2R)-2-phenyl-2-hydroxyethylamino)ethyl]phenoxy}propionic acid] | > 7 | > 5 | 50 | 2.2 ± 0.7 | particularly active compound as agonist | – | – | – | – | –
5 | C[C@H](Oc1ccc(CCNC[C@@H](O)c2ccccc2)cc1)C(=O)O [Compound 1e, (2S)-(+)-2-{4-[2-((2S)-2-phenyl-2-hydroxyethylamino)ethyl]phenoxy}propionic acid] | > 7 | > 5 | -64 | 192 ± 19 | inverse agonist activity | – | – | – | – | –
6 | CC(C)(Oc1ccc(CCNC[C@H](O)c2ccccc2)cc1)C(=O)O [Compound 1b, (2R)-(−)-2-{4-[2-(2-phenyl-2-hydroxyethylamino)ethyl]phenoxy}-2-methylpropionic acid] | > 7 | > 5 | 72 | 3.9 ± 2.1 | – | – | – | – | – | –
7 | C[C@@H](Oc1ccc(CCNC[C@@H](O)c2ccccc2)cc1)C(=O)O [Compound 1g, (2R)-(+)-2-{4-[2-((2S)-2-phenyl-2-hydroxyethylamino)ethyl]phenoxy}propionic acid] | > 7 | > 5 | -73 | 176 ± 20 | inverse agonist activity | – | – | – | – | –
8 | CC(C)(Oc1ccc(CCNCC(O)c2ccccc2)cc1)C(=O)O (racemic) [Compound 1a, (±)-2-{4-[2-(2-phenyl-2-hydroxyethylamino)ethyl]phenoxy}-2-methylpropionic acid] | > 7 | > 5 | 68 | 4.9 ± 0.25 | behaves as an agonist of the beta-3 adrenergic receptor independently of the configuration of the chiral atom | – | – | – | – | –
9 | C[C@@H](Oc1ccc(CCN[C@H](C)[C@@H](O)c2ccccc2)cc1)C(=O)O [Compound 1j] | > 7 | > 5 | – | 211 ± 10 | – | – | – | 20 | 21 | (39) %
10 | CC(C)(Oc1ccc(CCNC[C@@H](O)c2ccccc2)cc1)C(=O)O [Compound 1c, (2S)-(+)-2-{4-[2-(2-phenyl-2-hydroxyethylamino)ethyl]phenoxy}-2-methylpropionic acid] | > 7 | > 5 | 76 | 3.4 ± 0.8 | – | – | – | – | – | –

Second part, led by results:

Row | Ki [1, 6] [µM] | Ki [2, 7] [µM] | Emax [3, 8] [%] | EC50 [3] [nM] | type of activity on the beta-3 adrenergic receptor (in words) [3] | Compound | Ki [1] [µM] | Ki [2] [µM] | % activation at 10 μM, β1 [4] [%] | % activation at 10 μM, β2 [5] [%] | Intrinsic Activity (IA %) [3, 8]
11 | > 7 | 0.177 | 38 | 3.8 ± 1.8 | – | COc1ccc(S(=O)(=O)N2CCN(C[C@H](O)COc3cccc4[nH]c5ccccc5c34)CC2)cc1 [Compound 2j, (S)-1-(Carbazol-4-yloxy)-2-hydroxy-3-[4-(4-methoxybenzenesulfonyl)piperazin-1-yl)propane] | – | – | – | – | –
12 | > 7 | > 5 | 48 | 8.3 ± 1.94 | – | COc1ccc(S(=O)(=O)N2CCN(C[C@H](O)COc3ccc(OCc4ccccc4)cc3)CC2)cc1 [Compound 2c, (S)-1-(4-benzyloxyphenoxy)-2-hydroxy-3-[4-(4-methoxybenzenesulfonyl)piperazin-1-yl]propane] | – | – | – | – | –
13 | > 7 | > 2 | 43 | 5.24 ± 1.08 | – | COc1ccc(S(=O)(=O)N2CCN(C[C@H](O)COc3cccc4ccccc34)CC2)cc1 [Compound 2i, (S)-2-hydroxy-1-(napht-1-yloxy)-3-[4-(4-methoxyphenylsulfonyl)piperazin-1-yl)propane] | – | – | – | – | –
14 | > 7 | > 5 | 84 | 4.1 ± 1.93 | – | COc1ccc(S(=O)(=O)N2CCN(C[C@H](O)COc3cccc([N+](=O)[O-])c3)CC2)cc1 [Compound 2d, (S)-2-hydroxy-3-[4-(4-methoxyphenylsulfonyl)piperazin-1-yl]-1-(3-nitrophenoxy)-propane] | – | – | – | – | –
15 | > 7 | > 5 | 58 | 5 ± 1.9 | – | COc1ccc(S(=O)(=O)N2CCN(C[C@H](O)COc3ccccc3)CC2)cc1 [Compound 2a, (S)-2-hydroxy-3-[4-(4-methoxyphenylsulfonyl)piperazin-1-yl]-1-phenoxy propane] | – | – | – | – | –
16 | > 7 | > 5 | 67 | 1.97 ± 0.92 | – | COc1ccc(S(=O)(=O)N2CCN(C[C@H](O)COc3ccc(O)cc3)CC2)cc1 [Compound 2b, (S)-2-hydroxy-1-(4-hydroxyphenoxy)-3-[4-(4-methoxyphenylsulfonyl)piperazin-1-yl]propane] | – | – | – | – | –
17 | > 7 | > 5 | – | – | – | COc1ccc(S(=O)(=O)N2CCN(C[C@H](O)COc3cccc(N)c3)CC2)cc1 [Compound 2e, (S)-1-(3-aminophenoxy)-2-hydroxy-3-[4-(4-methoxyphenylsulfonyl)piperazin-1-yl]propane] | – | – | – | – | –
